In US11524955B2, “2,4-diamino-pyrimidine compounds and method for making and using the compounds” (Rigel Pharmaceuticals, Inc., priority 2016, dated 2022):
Like-named read-outs stand apart in the source and are kept apart here.

How the values were obtained:
IRAK4 = target: T1, IRAK4 (Homo sapiens, UniProt Q9NWZ3); assay: IRAK4 biochemical assay, ADP-Glo kinase assay; details: for Selectivity (TAK1/IRAK4): ratio of TAK1 and IRAK4 IC50
T1 sequence (Q9NWZ3 1-460): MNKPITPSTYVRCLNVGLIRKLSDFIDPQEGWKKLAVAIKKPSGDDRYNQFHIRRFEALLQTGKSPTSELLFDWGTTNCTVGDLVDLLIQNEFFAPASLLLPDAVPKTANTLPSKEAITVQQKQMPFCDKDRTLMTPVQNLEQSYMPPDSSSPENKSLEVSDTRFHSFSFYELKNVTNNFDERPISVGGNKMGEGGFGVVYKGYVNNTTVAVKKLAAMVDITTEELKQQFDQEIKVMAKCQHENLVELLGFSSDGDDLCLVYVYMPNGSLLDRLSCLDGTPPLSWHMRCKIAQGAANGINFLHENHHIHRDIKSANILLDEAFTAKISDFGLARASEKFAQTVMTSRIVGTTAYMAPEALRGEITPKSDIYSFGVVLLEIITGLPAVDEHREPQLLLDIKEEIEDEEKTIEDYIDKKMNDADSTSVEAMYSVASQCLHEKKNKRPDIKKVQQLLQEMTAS
Experimental: (§1) IRAK4 and TAK1 biochemical assays: kinase activity was measured by ADP-Glo kinase assay (Promega).

TAK1 = target: T2, TAK1 (Homo sapiens, UniProt O43318); assay: TAK1 biochemical assay, ADP-Glo kinase assay
T2 sequence (O43318 1-303 limits assumed): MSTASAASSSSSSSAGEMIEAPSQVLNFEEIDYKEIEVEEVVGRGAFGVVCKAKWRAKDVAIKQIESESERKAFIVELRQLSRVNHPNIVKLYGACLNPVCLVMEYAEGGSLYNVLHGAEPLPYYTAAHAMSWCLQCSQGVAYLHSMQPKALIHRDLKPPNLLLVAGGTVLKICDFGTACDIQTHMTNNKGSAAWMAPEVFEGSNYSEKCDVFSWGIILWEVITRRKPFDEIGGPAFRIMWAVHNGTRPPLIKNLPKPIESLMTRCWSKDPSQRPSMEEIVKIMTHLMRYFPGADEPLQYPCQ
Experimental: as §1

IL-23, THP1 cells = assay: IL-23 assay, THP1 cells primed with IFNg, LPS stimulated, ELISA; assay type: cell-based; details: Homo sapiens, THP-1
Experimental: (§2) IL-23 assays: THP1 cells or human primary monocyte-derived dendritic cells (DC) were primed overnight with IFNg. Following one hour preincubation with compound, cells were stimulated overnight with LPS. IL-23 released into the media was quantitated by ELISA.

IL-23, dendritic cells = assay: IL-23 assay, human primary monocyte-derived dendritic cells, LPS stimulated, ELISA; assay type: cell-based; details: Dendritic cell
Experimental: as §2

IL-6, HUVEC = assay: IL-6 assay, HUVEC, ELISA; assay type: cell-based, human; details: for IC50: Homo sapiens
IL-8, HUVEC = assay: IL-8 assay, HUVEC, ELISA; assay type: cell-based, human; details: for IC50: Homo sapiens
[1] = THP1 cells, IFNy primed, LPS stimulated, 10 pt, read-out: IL23-p19 ELISA, THP1-IFNy, LPS, 10 pt
[2] = read-out: IL23 (LPS induced) IC50
[3] = LPS stimulated, 10 pt, read-out: IL23-P19, ELISA, Dendritic, LPS, 10 pt

Structure (SMILES)	IC50 (IRAK4)	IC50 (TAK1)	IC50 (IL-23, THP1 cells; [1])	IC50 (IL-23, THP1 cells; [2])	IC50 (IL-23, dendritic cells; [3])	Selectivity (TAK1/IRAK4) (IRAK4)	other results
N#Cc1ccc(-c2cnc(Nc3cccc(C(=O)N4CCCC4)c3)nc2N[C@H]2[C@@H](C(N)=O)[C@@H]3C=C[C@H]2C3)cc1 [Compound 14, (1S,2S,3R,4R)-3-((5-(4-cyanophenyl)-2-((3-(pyrrolidine-1-carbonyl)phenyl)amino)pyrimidin-4-yl)amino)bicyclo[2.2.1] hept-5-ene-2-carboxamide]	9 nM	1600 nM	< 250 nM	190 nM	< 1000 nM	–	–
Cc1cnc(Nc2cccc(C(=O)N3CCCC3)c2)nc1N[C@H]1[C@@H](C(N)=O)[C@@H]2C=C[C@H]1C2 [Compound 5, (1S,2S,3R,4R)-3-((5-methyl-2-((3-(pyrrolidine-1-carbonyl)phenyl)amino)pyrimidin-4-yl)amino)bicyclo[2.2.1] hept-5-ene-2-carboxamide]	3 nM	8 nM	< 100 nM	100 nM	–	–	–
N#Cc1cccc(-c2cnc(Nc3cccc(C(=O)N4CCCC4)c3)nc2N[C@@H]2CCCC[C@@H]2C(N)=O)c1 [Compound 17, (1S,2R)-2-((5-(3-cyanophenyl)-2-((3-(pyrrolidine-1-carbonyl)phenyl)amino)pyrimidin-4-yl)amino)cyclohexane-1-carboxamide]	30 nM	67 nM	< 1000 nM	900 nM	–	2	–
NC(=O)[C@@H]1[C@H](Nc2nc(Nc3ccc(OCCN4CCCC4)cc3)ncc2-c2cccnc2)[C@H]2C=C[C@@H]1C2 [Compound 2]	–	–	< 1000 nM	–	–	–	–
CS(=O)(=O)N1CCN(c2ccc(Nc3ncc(-c4cccnc4)c(N[C@@H]4C5C=CC(C5)[C@@H]4C(N)=O)n3)cc2F)CC1 (stereo partly drawn) [Compound 3, (2S,3R)-3-((2-((3-fluoro-4-(4-(methylsulfonyl)piperazin-1-yl)phenyl)amino)-5-(pyridin-3-yl)pyrimidin-4-yl)amino)bicyclo[2.2.1] hept-5-ene-2-carboxamide]	–	–	< 1000 nM	–	–	–	–
NC(=O)[C@@H]1[C@H](Nc2nc(Nc3cccc(C(=O)N4CCCC4)c3)ncc2-c2ccc(F)cc2)[C@H]2C=C[C@@H]1C2 [Compound 12, (1S,2S,3R,4R)-3-((5-(4-fluorophenyl)-2-((3 (pyrrolidine-1-carbonyl)phenyl)amino)pyrimidin-4-yl)amino)bicyclo[2.2.1] hept-5-ene-2-carboxamide]	19 nM	670 nM	< 1000 nM	460 nM	> 1000 nM	–	–
N#Cc1cccc(-c2cnc(Nc3cccc(C(=O)N4CCCC4)c3)nc2N[C@H]2[C@@H](C#N)[C@@H]3C=C[C@H]2C3)c1 [Compound 18, (1S,2S,3R,4R)-3-((5-(3-cyanophenyl)-2-((3-(pyrrolidine-1-carbonyl)phenyl)amino)pyrimidin-4-yl)amino)bicyclo[2.2.1] hept-5-ene-2-carbonitrile]	3700 nM	132000 nM	> 1000 nM	3400 nM	–	36	–
Cc1cc(Nc2ncc(-c3cccnc3)c(NC3C4C=CC(C4)C3C(N)=O)n2)ccc1OCCN1CCCC1 (stereo not shown) [Compound 1, 3-((2-((3-methyl-4-(2-(pyrrolidin-1-yl)ethoxy)phenyl)amino)-5-(pyridin-3-yl)pyrimidin-4-yl)amino)bicyclo[2.2.1] hept-5-ene-2-carboxamide]	–	–	< 100 nM	–	< 250 nM	–	–
N#Cc1cccc(-c2cnc(Nc3cccc(C(=O)N4CCCC4)c3)nc2N[C@H]2[C@@H](C(N)=O)[C@@H]3C=C[C@H]2C3)c1 [Compound 13, (1S,2S,3R,4R)-3-((5-(3-cyanophenyl)-2-((3-(pyrrolidine-1-carbonyl)phenyl)amino)pyrimidin-4-yl)amino)bicyclo[2.2.1] hept-5-ene-2-carboxamide]	13 nM	105 nM	< 1000 nM	280 nM	< 1000 nM	–	–
NC(=O)[C@@H]1[C@H](Nc2nc(Nc3cccc(C(=O)N4CCCC4)c3)ncc2C2CC2)[C@H]2C=C[C@@H]1C2 [Compound 6, (1S,2S,3R,4R)-3-((5-cyclopropyl-2-((3-(pyrrolidine-1-carbonyl)phenyl)amino)pyrimidin-4-yl)amino)bicyclo[2.2.1] hept-5-ene-2-carboxamide]	6 nM	11 nM	< 100 nM	90 nM	< 100 nM	–	–
NC(=O)[C@@H]1[C@H](Nc2nc(Nc3cccc(C(=O)N4CCCC4)c3)ncc2-c2ccccc2F)[C@H]2C=C[C@@H]1C2 [Compound 10, (1S,2S,3R,4R)-3-((5-(2-fluorophenyl)-2-((3-(pyrrolidine-1-carbonyl)phenyl)amino)pyrimidin-4-yl)amino)bicyclo[2.2.1] hept-5-ene-2-carboxamide]	11 nM	4800 nM	< 1000 nM	870 nM	–	434	IRAK4/TAK1 selectivity (IRAK4): 434

Further lines, with some results ahead:

IC50 (IRAK4)	IC50 (TAK1)	IC50 (IL-23, THP1 cells; [1])	IC50 (IL-23, THP1 cells; [2])	IC50 (IL-23, dendritic cells; [3])	Selectivity (TAK1/IRAK4) (IRAK4)	Structure (SMILES)	other results
10 nM	229 nM	< 1000 nM	320 nM	–	–	NC(=O)[C@@H]1[C@H](Nc2nc(Nc3cccc(C(=O)N4CCCC4)c3)ncc2-c2cccnc2)[C@H]2C=C[C@@H]1C2 [Compound 4, (1S,2S,3R,4R)-3-((5-(pyridin-3-yl)-2-((3-(pyrrolidine-1-carbonyl)phenyl)amino)pyrimidin-4-yl)amino)bicyclo[2.2.1] hept-5-ene-2-carboxamide]	–
10 nM	166 nM	< 250 nM	220 nM	< 1000 nM	–	NC(=O)[C@@H]1[C@H](Nc2nc(Nc3cccc(C(=O)N4CCCC4)c3)ncc2-c2ccccc2)[C@H]2C=C[C@@H]1C2 [Compound 8, (1S,2S,3R,4R)-3-((5-phenyl-2-((3 (pyrrolidine-1-carbonyl)phenyl)amino)pyrimidin-4-yl)amino)bicyclo[2.2.1] hept-5-ene-2-carboxamide]	–
6 nM	106 nM	< 250 nM	130 nM	< 100 nM	17	NC(=O)[C@@H]1[C@H](Nc2nc(Nc3cccc(C(=O)N4CCCC4)c3)ncc2-c2cccc(F)c2)[C@H]2C=C[C@@H]1C2 [Compound 11, (1S,2S,3R,4R)-3-((5-(3-fluorophenyl)-2-((3-(pyrrolidine-1-carbonyl)phenyl)amino)pyrimidin-4-yl)amino)bicyclo[2.2.1] hept-5-ene-2-carboxamide]	IC50 (IL-23, THP1 cells; THP cells, LPS, read-out: IL23 (THP, LPS) IC50): 130 nM; IC50 (IL-23, dendritic cells; LPS, read-out: IL23 (Dentritic Cells, LPS) IC50): 70 nM; IC50 (IL-6, HUVEC; read-out: IL6 (HUVEC, IL-1β) IC50): 140 nM; IC50 (IL-6, HUVEC; read-out: IL6 (HUVEC, LPS) IC50): 130 nM; IC50 (IL-6, HUVEC; read-out: IL6 (HUVEC, TNFα) IC50): 1700 nM; Selectivity IL6 (TNFα/IL-1β) (IL-6, HUVEC; ratio TNFα/IL-1β): 12; Selectivity IL6 (TNFα/LPS) (IL-6, HUVEC; ratio TNFα/LPS): 13; IC50 (IL-8, HUVEC; read-out: IL8 (HUVEC, IL-1β) IC50): 310 nM; IC50 (IL-8, HUVEC; read-out: IL8 (HUVEC, LPS) IC50): 950 nM; IC50 (IL-8, HUVEC; read-out: IL8 (HUVEC, TNFα) IC50): 6000 nM; Selectivity IL8 (TNFα/IL-1β) (IL-8, HUVEC; ratio TNFα/IL-1β): 18; Selectivity IL8 (TNFα/LPS) (IL-8, HUVEC; ratio TNFα/LPS): 6
4 nM	24 nM	< 250 nM	130 nM	< 250 nM	7	NC(=O)[C@@H]1[C@H](Nc2nc(Nc3cccc(C(=O)N4CCCC4)c3)ncc2-c2ccncc2)[C@H]2C=C[C@@H]1C2 [Compound 9, (1S,2S,3R,4R)-3-((5-(pyridin-4-yl)-2-((3-(pyrrolidine-1-carbonyl)phenyl)amino)pyrimidin-4-yl)amino)bicyclo[2.2.1] hept-5-ene-2-carboxamide]	–
2 nM	11 nM	< 100 nM	40 nM	< 100 nM	–	NC(=O)[C@@H]1[C@H](Nc2nc(Nc3cccc(C(=O)N4CCCC4)c3)ncc2-c2ccoc2)[C@H]2C=C[C@@H]1C2 [Compound 7, (1S,2S,3R,4R)-3-((5-(furan-3-yl)-2-((3-(pyrrolidine-1-carbonyl)phenyl)amino)pyrimidin-4-yl)amino)bicyclo[2.2.1] hept-5-ene-2-carboxamide]	–
